In patent publication US4749700A, “Novel methods of administering antihistamines, antinausea and antiemetic pharmaceutical agents and novel dosage forms containing same” (priority 1987, dated 1988):
Counter-ions that a name gives are not always drawn. Like-named read-outs stand apart in the source and are kept apart here.

How the values were obtained:
nasal polyps = conditions: cited from earlier work
[1] = 4-way crossover study of metoclopramide hydrochloride (nasal, oral, intramuscular) in volunteer human subjects; type: in vivo; conditions: for Tmax: human, in vivo, Time to Peak
Method: A 4-way crossover study was conducted in eight volunteer human subjects to compare the effects of the nasal administration of 5 and 10 mg of metoclopramide hydrochloride in a gel formulation, 10 mg of the same agent in an oral formulation and 5 mg of the product intramuscularly. The nasal formulation had the following composition: […]
______________________________________
BENZYL ALCOHOL N.F. 1.500 ml
SODIUM CHLORIDE U.S.P. 0.800 grams
ACETIC ACID, N.F. 0.320 grams
SODIUM ACETATE U.S.P. 0.077 grams
SORBITOL SOLUTION U.S.P.
METOCLOPRAMIDE HCL 5.000 grams
WATER PURIFIED U.S.P. q.s.
The oral and intramuscular compositions were commercial formulations available from A.G. Robbins Pharmaceutical Company, Richmond, Va., under the name Reglan.
The study was extended to dosage levels of 20 mg and 40 mg by the intranasal route using the same compositions.

in vivo = assay: in vivo; set-up: species or system Sprague-Dawley male rats; conditions: rat
Method: Two Sprague-Dawley male rats each weighing 250 to 300 grams, anesthetized using sodium pentobarbital (50 mg/Kg of body weight), were administered nasally by micropipet a dosage level of 15 mg/Kg of body weight of the following composition:
216 mg metoclopramide.HCL (MCP.HCL)
895.2 mg polyethylene glycol (PEG 400)
The femoral artery was cannulated with heparinized polyethylene tubing (Clay Adams, PE-50) and blood samples were removed at the times indicated in Table 1.
The samples were analyzed by high pressure liquid chromatography (HPLC) as follows:
Column: Silica Column (4.6×250 mm)
Mobile Phase: CH2 Cl2 : MeOH:NH4 OH=90:10:0.5
Plasma (0.3 ml) was placed in a test tube and 0.1 ml of 1N NaOH was added. Four ml of methylene chloride was then added and the mixture shaken for 10 minutes on a reciprocal shaker, centrifuged for 3 minutes in an IEC clinical centrifuge and the upper layer removed by aspiration. A 3.0 ml aliquot of the methylene chloride layer was transferred to a second tube and evaporated to dryness with a streak of nitrogen gas. The resulting residue was then dissolved in 0.1 to 0.5 ml of mobile phase and submitted to HPLC analysis. […]

nausea and vomiting = assay: Intranasal metoclopramide for control of nausea and vomiting in cancer patients; type: in vivo, human; conditions: intranasal 40 mg every four hours
Method: The patient was a person with Stage IV ovarian cancer.
Because of repeated nausea and vomiting due to bowel obstruction and other factors, intranasal metoclopramide at 40 mg per dose every four hours was employed for control of symptoms.

cats = conditions: same or larger amounts into the sinus; cited from earlier work
dogs = conditions: cited from earlier work

For CC1(C)O[C@@H]2C[C@H]3[C@@H]4C[C@H](F)C5=CC(=O)C=C[C@]5(C)[C@H]4[C@@H](O)C[C@]3(C)[C@]2(C(=O)CO)O1 [flunisolide], the topical antiinflammatory activity (nasal polyps) is given as “excellent topical antiinflammatory”, the absorption (nasal polyps; nasal topical) is given as “not rapidly absorbed” and the systemic activity (nasal polyps; nasal topical) is given as “minimal systemic activity”.
With CCN(CC)CCNC(=O)c1cc(Cl)c(N)cc1OC [metoclopramide hydrochloride] the pharmacokinetic profiles ([1]; 10 mg nasal, 10 mg P.O. and 5 mg I.M. compared) was “statistically identical”, the local toxicity ([1]; during or after the study, 5 and 10 mg nasal, 10 mg P.O., 5 mg I.M.) was “No evidence of local toxicity” and the “local or systemic toxicity” value ([1]; extended study, 20 mg and 40 mg intranasal) was “no evidence of either local or systemic toxicity”. For the same compound, the Tmax [1] was 1.34 h, the Tmax ([1]; im) was 1.53 h and the Tmax ([1]; po) was 1.62 h. For the same compound, the “maintenance of high levels” value (in vivo) was “maintained for a longer period of time”, the “time to achieve maximum levels” value (in vivo) was “extended” and the Tmax (in vivo; 15 mg/kg) was 0.25 h. It also gave a Concentration (in vivo; 15 mg/kg, 0.25 h) of 1.61 ± 0.23 ug/ml plasma, a Concentration (in vivo; 15 mg/kg, 0.5 h) of 1.55 ± 0.18 ug/ml plasma and a Concentration (in vivo; 15 mg/kg, 0.75 h) of 1.30 ± 0.18 ug/ml plasma. For the same compound, the Concentration (in vivo; 15 mg/kg, 1 h) was 1.26 ± 0.3 ug/ml plasma, the Concentration (in vivo; 15 mg/kg, 1.25 h) was 1.62 ± 0.17 ug/ml plasma and the Concentration (in vivo; 15 mg/kg, 1.5 h) was 1.63 ± 0.18 ug/ml plasma. It also gave a Concentration (in vivo; 15 mg/kg, 2 h) of 1.55 ± 0.26 ug/ml plasma, a Concentration (in vivo; 15 mg/kg, 4 h) of 1.29 ± 0.28 ug/ml plasma and a concentration at 0.25 h (in vivo; 15 mg/kg, Concentration) of 850 ± 120 ng/mL. It also gave a concentration at 0.5 h (in vivo; 15 mg/kg, Concentration) of 1370 ± 210 ng/mL, a concentration at 0.75 h (in vivo; 15 mg/kg, Concentration) of 1510 ± 180 ng/mL and a concentration at 1 h (in vivo; 15 mg/kg, Concentration) of 1610 ± 50 ng/mL. For the same compound, the concentration at 1.25 h (in vivo; 15 mg/kg, Concentration) was 1110 ± 340 ng/mL, the concentration at 1.5 h (in vivo; 15 mg/kg, Concentration) was 1040 ± 350 ng/mL and the concentration at 2 h (in vivo; 15 mg/kg, Concentration) was 1100 ± 380 ng/mL. It also gave a concentration at 2.5 h (in vivo; 15 mg/kg, Concentration) of 1550 ± 210 ng/mL, a concentration at 3 h (in vivo; 15 mg/kg, Concentration) of 1090 ± 360 ng/mL and a concentration at 4 h (in vivo; 15 mg/kg, Concentration) of 940 ng/mL.
For CCN(CC)CCNC(=O)c1cc(Cl)c(N)cc1OC [metoclopramide], the benefit from treatment (nausea and vomiting; five more cancer patients refractory to other antinausea treatments) was “All patients benefited from the treatment” and the control of nausea (nausea and vomiting; one patient, Stage IV ovarian cancer with bowel obstruction) was “contained their nausea between occasional bouts of vomiting”.
In the case of CN1CCCC1c1cccnc1 (centres unmarked) [nicotine], the pressor response (cats) is given as “little or no effect”, the pressor response (dogs; injection of 1 mg) is given as “immediate and marked pressor response” and the pressor response (dogs; same or larger amounts into the sinus) is given as “little or no effect”.
